Measurements as given in US20220323406A1, “METHODS AND COMPOSITIONS FOR DIFFERENTIATING STEM CELLS” (Massachusetts Institute of Technology, priority 2019, published 2022).
Where a name gives a salt, the structure may show the parent alone.

Columns and labels:
[1] = test system: ENR+CD organoids (ISC to Paneth cell differentiation); assay: Primary screen: basal (non-stimulated) lysozyme secretion LYZ.NS, 2.5-D 384-well ENR+CD organoid differentiation; assay type: cell-based, mouse; conditions: primary screen; for Z.LYZ.NS: standard z score
Excerpt: (§1) High-throughput screening.

[2] = test system: ENR+CD organoids (ISC to Paneth cell differentiation); assay: Primary screen: CCh-stimulated lysozyme secretion LYZ.S, 2.5-D 384-well ENR+CD organoid differentiation; assay type: cell-based, mouse; conditions: primary screen
Excerpt: as §1

ENR+CD organoids = assay: Primary screen: ATP (CellTiter-Glo 3D, CTG) cell number/viability, 2.5-D 384-well ENR+CD organoids; conditions: primary screen; for Z.CTG: standard z score;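 as to all read-outs here: compounds given at plating and again on day 3 over a 6-day differentiation from ENR+CV stem-cell-enriched precursors, ATP measured on day 6, plate median as control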

Compound	Dose.FC.LYZ.NS ([1]; dose 0.08 uM) [log2 fold change]	Z.LYZ.NS (standard z score) ([1]; dose 0.08 uM)	Dose.FC.LYZ.NS ([1]; dose 0.40 uM) [log2 fold change]	Z.LYZ.NS (standard z score) ([1]; dose 0.40 uM)	Dose.FC.LYZ.NS ([1]; dose 2.00 uM) [log2 fold change]	Z.LYZ.NS (standard z score) ([1]; dose 2.00 uM)	Dose.FC.LYZ.NS ([1]; dose 10.00 uM) [log2 fold change]	Z.LYZ.NS (standard z score) ([1]; dose 10.00 uM)	Dose.FC.LYZ.S ([2]; dose 0.08 uM) [log2 fold change]	Dose.FC.LYZ.S ([2]; dose 0.40 uM) [log2 fold change]	Dose.FC.LYZ.S ([2]; dose 2.00 uM) [log2 fold change]	Dose.FC.LYZ.S ([2]; dose 10.00 uM) [log2 fold change]	Dose.FC.CTG (ENR+CD organoids; dose 0.08 uM) [log2 fold change]	Dose.FC.CTG (ENR+CD organoids; dose 0.40 uM) [log2 fold change]	Dose.FC.CTG (ENR+CD organoids; dose 2.00 uM) [log2 fold change]	Dose.FC.CTG (ENR+CD organoids; dose 10.00 uM) [log2 fold change]	Z.LYZ.NS ([1]; dose 0.40 uM)	Z.LYZ.NS ([1]; dose 2.00 uM)	Z.LYZ.NS ([1]; dose 10.00 uM)	further results
COc1c(O)cc2c(c1O)[C@@H]1O[C@H](CO)[C@@H](O)[C@H](O)[C@H]1OC2=O [Bergenin]	0.164	1.432	0.098	0.852	0.080	0.699	0.103	0.898	0.198	0.108	0.125	0.144	0.288	0.245	0.205	0.344				
CC[C@H](NC(=O)[C@H](C)NC)C(=O)N1C[C@@H](O)C[C@H]1Cc1c(-c2[nH]c3cc(F)ccc3c2C[C@@H]2C[C@H](O)CN2C(=O)[C@H](CC)NC(=O)[C@H](C)NC)[nH]c2cc(F)ccc12 [Birinapant]	0.032	0.281	−0.012	−0.102	0.036	0.317	−0.029	−0.256	0.075	0.103	0.011	−0.080	−0.257	0.095	0.227	0.123				
CC(C)NCC(O)COc1ccc(COCCOC(C)C)cc1 (stereo not shown) [Bisoprolol fumarate]	0.085	0.739	0.075	0.649	0.075	0.656	0.003	0.027	0.086	0.129	0.074	0.015	−0.104	−0.057	−0.020	0.058				
COc1ccccc1Oc1c(NS(=O)(=O)c2ccc(C(C)(C)C)cc2)nc(-c2ncccn2)nc1OCCO [Bosentan Hydrate]	0.090	0.785	0.068	0.589	0.039	0.337	0.058	0.508	0.145	0.100	0.014	0.045	0.204	0.207	0.121	0.085				
CCN[C@H]1CN(CCCOC)S(=O)(=O)c2sc(S(N)(=O)=O)cc21 [Brinzolamide]	0.133	1.159	0.084	0.733	0.059	0.511	0.060	0.521	0.030	0.052	0.064	0.083	−0.007	−0.068	0.118	0.078				Z.CTG (standard z score) (ENR+CD organoids; dose 0.40 uM): −0.163; Z.CTG (standard z score) (ENR+CD organoids; dose 2.00 uM): 0.282; Z.CTG (standard z score) (ENR+CD organoids; dose 10.00 uM): 0.186
CCCCN1CCCCC1C(=O)Nc1c(C)cccc1C (stereo not shown) [Bupivacaine HCl]	0.002	0.016	−0.100		−0.137		−0.195		0.082	−0.169	−0.210	−0.295	−0.003	−0.217	−0.300	−0.364	−0.871	−1.196	−1.700	
CC(C)C[C@H](NC(=O)[C@@H](NC(=O)c1cccc(-c2ccccc2)n1)[C@@H](C)O)B(O)O [CEP-18770 (Delanzomib)]	−0.108		−0.076		−0.063		−0.035		−0.179	−0.159	−0.180	−0.149	−0.953	−1.642	−0.990	−1.148	−0.664	−0.546	−0.308	Z.LYZ.NS ([1]; dose 0.08 uM): −0.937; Z.CTG (ENR+CD organoids; dose 0.08 uM): −2.276; Z.CTG (ENR+CD organoids; dose 0.40 uM): −3.923; Z.CTG (ENR+CD organoids; dose 2.00 uM): −2.364; Z.CTG (ENR+CD organoids; dose 10.00 uM): −2.742
O=C(NC(NC(=S)Nc1ccc(F)c([N+](=O)[O-])c1)C(Cl)(Cl)Cl)C(c1ccccc1)c1ccccc1 (stereo not shown) [CGK733]	0.099		−0.026		−0.099		−0.122		0.008	−0.018	−0.125	−0.230	−0.362	−0.093	−0.244	−0.478	−0.222	−0.865	−1.063	Z.LYZ.NS ([1]; dose 0.08 uM): 0.863; Z.CTG (ENR+CD organoids; dose 0.08 uM): −0.864; Z.CTG (ENR+CD organoids; dose 0.40 uM): −0.221; Z.CTG (ENR+CD organoids; dose 2.00 uM): −0.582; Z.CTG (ENR+CD organoids; dose 10.00 uM): −1.143
